Counter-ions that a name gives are not always drawn.
System: P. falciparum malaria
Experiment: Phase 1/2 open-label imatinib monotherapy trial vs standard-of-care (SOC)
Type: in vivo, human
Experimental: Generic imatinib mesylate was purchased from TEVA Pharmaceuticals (Jerusalem, Israel) and was provided to patients in two 200 mg tablets per dose to conform with the usual quantity of imatinib indicated for treatment of chronic myelogenous leukemia. CV-Artecan, the standard-of-care (SOC) for treatment of P. falciparum malaria in Vietnam was purchased from OPC Pharmaceutical (Ho Chi Minh City, Vietnam) and was administered to patients as a tablet containing 40 mg dihydroartemisinin plus 320 mg piperaquine phosphate.
P. falciparum-infected males of age 16-55 years with no complicating co-morbidities that had not received an anti-malarial drug within the previous 4 weeks were eligible for two trials, i.e., imatinib monotherapy and imatinib plus SOC (Im+SOC) triple combination therapy. Those individuals who met eligibility criteria and provided informed written consent were enrolled in the trial.
The phase 1/2 “imatinib monotherapy trial” was an open-label trial aimed at determining the safety and tolerability of imatinib in adult male patients with uncomplicated P. falciparum malaria. Patients were randomly assigned to either a standard-of-care (SOC) control arm (n=8) in which they received 40 mg dihydroartemisinin plus 320 mg piperaquine phosphate orally twice (12 hours apart) on the first day and then once a day on the following 2 days, or an imatinib monotherapy arm (n=7) in which they received 400 mg of imatinib mesylate orally with a meal and full glass of water once a day for five days.
During both trials, patient temperatures and peripheral blood parasite levels were monitored before, during and after the trial on days 0, 1, 2, 3, 5, 7, 28, and 42. Patients were also examined for the usual symptoms of P. falciparum malaria, including fever, chills, headache, fatigue, anorexia, and mild diarrhea.
Primary endpoints for both studies were safety and tolerability. Secondary endpoints were reduction in parasitemia for the imatinib monotherapy study and both reduction in parasitemia and decline in pyrexia for the Im+SOC study. Safety and tolerability were assessed at protocol-specified time points and adverse events were classified as toxicities not normally associated with P. falciparum malaria, including edema, rashes, and severe diarrhea, etc. […] Attribution of imatinib to adverse events was assessed using a 5-point scale: not related, unlikely related, possibly related, probably related, and definitely related.
A mixed ANOVA was conducted to determine the effect of drug treatment on parasitemia and pyrexia. Post-hoc multi-comparison testing was used to determine which time points were statistically different. […] SOC treatment cohorts from each individual trial were analyzed separately. […]

Cc1ccc(NC(=O)c2ccc(CN3CCN(C)CC3)cc2)cc1Nc1nccc(-c2cccnc2)n1 [imatinib, imatinib mesylate]
drug-related toxicity (analyses of blood parameters and body temperatures) (400 mg imatinib orally once a day for five days): no evidence of drug-related toxicity
participants who experienced a rise in parasitemia and had to be transferred to SOC (imatinib alone, n=7): two of the seven
apparent accelerated decrease in pyrexia vs SOC (mixed ANOVA, FIG. 1D) (p-value=0.7029): did not achieve statistical significance
number of parasitized cells per microliter of blood (FIG. 1A) (peripheral blood, before, during and after treatment, n=7): decrease

— patent US20250025461A1, “TREATMENT OF SEVERE AND UNCOMPLICATED MALARIA” (PURDUE RESEARCH FOUDATION, priority 2021, published 2025)
